Measurements as given in paper PMC3396595, “Identification of a Novel Calcium Binding Motif Based on the Detection of Sequence Insertions in the Animal Peroxidase Domain of Bacterial Proteins” (PLoS ONE, 2012).

Biological target: PepA-Nter (N-terminal ANP-like domain of PepA, PP_2561) (Pseudomonas putida, UniProt Q88JT6)
Assay: peroxidase assay, quinoneimine formation at […] nm
Assay type: biochemical
Settings: heme-reconstituted; electron donor with phenol; H2O2 0.25-45 mM varied; potassium phosphate pH 7.0, 25 °C

Chain of PepA-Nter (N-terminal ANP-like domain of PepA, PP_2561) (Q88JT6 1-875 limits assumed): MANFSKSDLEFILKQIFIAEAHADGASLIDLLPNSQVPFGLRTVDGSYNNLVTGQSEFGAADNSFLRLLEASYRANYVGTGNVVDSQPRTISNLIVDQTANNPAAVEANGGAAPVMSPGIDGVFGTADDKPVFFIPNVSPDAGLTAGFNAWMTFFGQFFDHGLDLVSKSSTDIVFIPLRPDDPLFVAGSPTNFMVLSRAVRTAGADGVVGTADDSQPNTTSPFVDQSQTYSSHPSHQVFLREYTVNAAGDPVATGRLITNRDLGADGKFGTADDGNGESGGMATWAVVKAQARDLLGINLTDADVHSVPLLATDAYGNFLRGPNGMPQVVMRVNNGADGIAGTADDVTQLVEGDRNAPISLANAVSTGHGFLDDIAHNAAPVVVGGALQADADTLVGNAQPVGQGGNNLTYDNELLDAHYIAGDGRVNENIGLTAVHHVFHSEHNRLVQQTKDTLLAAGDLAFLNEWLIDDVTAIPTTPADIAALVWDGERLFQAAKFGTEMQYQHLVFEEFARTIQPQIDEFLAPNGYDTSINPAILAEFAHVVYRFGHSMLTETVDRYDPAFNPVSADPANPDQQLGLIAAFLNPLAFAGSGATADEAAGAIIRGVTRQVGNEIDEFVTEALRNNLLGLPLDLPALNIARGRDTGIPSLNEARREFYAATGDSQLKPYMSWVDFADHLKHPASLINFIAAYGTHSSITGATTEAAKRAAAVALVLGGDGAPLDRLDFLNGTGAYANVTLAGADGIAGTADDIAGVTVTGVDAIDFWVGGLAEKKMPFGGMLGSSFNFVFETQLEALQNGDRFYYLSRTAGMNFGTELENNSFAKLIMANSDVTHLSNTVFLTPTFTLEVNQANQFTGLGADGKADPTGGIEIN

Cc1c(N)c(=O)n(-c2ccccc2)n1C [4-aminoantipyrine]
peroxidase assay, quinoneimine formation at 510 nm: oxidation of 4-aminoantipyrine (same electron donor than the one used in this study)
